Measurements taken from patent publication US9241487B2, “Pyrimidine derivatives and use thereof as pesticides” (BAYER INTELLECTUAL PROPERTY GMBH, priority 2010, dated 2016).

What was measured:
Sphaerotheca fuliginea = test: Sphaerotheca test (cucumber)/protective; format: in vivo; conditions: Podosphaera fuliginea, 168 h, cucumber plants, protective spray, evaluation 7 days after inoculation, read-out: Efficacy (%)
Protocol: Sphaerotheca Test (Cucumber)/Protective
(§1) Solvent: 49 parts by weight of N,N-dimethylformamide
(§2) Emulsifier: 1 part by weight of alkylaryl polyglycol ether
To produce a suitable preparation of active compound, 1 part by weight of active compound is mixed with the stated amounts of solvent and emulsifier, and the concentrate is diluted with water to the desired concentration. To test for protective activity, young cucumber plants are sprayed with the preparation of active compound at the stated application rate. 1 day after the treatment, the plants are inoculated with a spore suspension of Sphaerotheca fuliginea. The plants are then placed in a greenhouse at 70% relative air humidity and a temperature of 23° C. Evaluation follows 7 days after the inoculation. 0% means an efficacy which corresponds to that of the control, whereas an efficacy of 100% means that no infection is observed. In this test, the following compounds according to the invention show, at an active compound concentration of 500 ppm, an efficacy of 70% or more: […]

Puccinia triticina = Puccinia triticina test (wheat)/protective; format: in vivo; conditions: 192 h, protective spray, evaluation 8 days after inoculation, read-out: Efficacy (%)
Protocol: Puccinia triticina Test (Wheat)/Protective
(§3) Solvent: 49 parts by weight of N,N-dimethylacetamide
as §2
(§4) To produce a suitable preparation of active compound, 1 part by weight of active compound is mixed with the stated amounts of solvent and emulsifier, and the concentrate is diluted with water to the desired concentration. To test for protective activity, young plants are sprayed with the preparation of active compound at the stated application rate. After the spray coating has dried on, the plants are sprayed with spores with a spore suspension of Puccinia triticina. The plants remain in an incubation cabin at 20° C. and 100% relative atmospheric humidity for 48 hours. The plants are placed in a greenhouse at a temperature of about 20° C. and a relative atmospheric humidity of about 80%. Evaluation follows 8 days after the inoculation. 0% means an efficacy which corresponds to that of the control, whereas an efficacy of 100% means that no infection is observed.
(§5) In this test, the following compounds according to the invention show, at an active compound concentration of 500 ppm, an efficacy of 70% or more: […]

Septoria tritici = Septoria tritici test (wheat)/protective; format: in vivo; conditions: Zymoseptoria tritici, 504 h, protective spray, evaluation 21 days after inoculation, read-out: Efficacy (%)
Protocol: Septoria tritici Test (Wheat)/Protective
as §3, §2
as §4, with “with” for “with spores with”, “of Septoria tritici.” for “of Puccinia triticina.”, “hours. Thereafter, the plants are placed under a translucent hood at 15° C. and 100% relative air humidity for a further 60 hours.” for “hours.”, “about 15°” for “about 20°”, “follows 21” for “follows 8”
as §5

[1] = log P by HPLC on reversed-phase columns (C 18), EEC directive 79/831 Annex V.A8; format: physicochemical; conditions: reversed-phase HPLC columns (C 18); method [a]: LC-MS, acidic range pH 2.7, 0.1% aqueous formic acid/acetonitrile, gradient 10% to 95% acetonitrile
Protocol: The log P values were measured according to EEC directive 79/831 Annex V.A8 by HPLC (High Performance Liquid Chromatography) on reversed-phase columns (C 18), using the methods below: [a] The LC-MS determination in the acidic range is carried out at pH 2.7 with 0.1% aqueous formic acid and acetonitrile (contains 0.1% formic acid) as mobile phases; linear gradient from 10% acetonitrile to 95% acetonitrile.

Leptosphaeria nodorum = Leptosphaeria nodorum test (wheat)/protective; format: in vivo; conditions: Parastagonospora nodorum, wheat plants, protective spray, evaluation 7-9 days after inoculation, read-out: Efficacy (%)
Protocol: Leptosphaeria nodorum Test (Wheat)/Protective
as §1, §2
To produce a suitable preparation of active compound, 1 part by weight of active compound is mixed with the stated amounts of solvent and emulsifier, and the concentrate is diluted with water to the desired concentration. To test for protective activity, young wheat plants are sprayed with the preparation of active compound at the stated application rate. 1 day after the treatment, the plants are inoculated with an aqueous spore suspension of Leptosphaeria nodorum and then remain at 100% relative atmospheric humidity and 22° C. for 48 h. The plants are then placed in a greenhouse at 90% relative atmospheric humidity and a temperature of 22° C. Evaluation is carried out 7-9 days after the inoculation. 0% means an efficacy which corresponds to that of the control, whereas an efficacy of 100% means that no infection is observed. In this test, the following compounds according to the invention show, at an active compound concentration of 500 ppm, an efficacy of 70% or more: […]

[2] = system: Blumeria graminis fsp. hordei; test: Blumeria graminis test (barley)/protective; format: in vivo; conditions: 168 h, protective spray, evaluation 7 days after inoculation, read-out: Efficacy (%)
Protocol: Blumeria graminis Test (Barley)/Protective
as §3, §2
To produce a suitable preparation of active compound, 1 part by weight of active compound is mixed with the stated amounts of solvent and emulsifier, and the concentrate is diluted with water to the desired concentration. To test for protective activity, young plants are sprayed with the preparation of active compound at the stated application rate. After the spray coating has dried on, the plants are dusted with spores of Blumeria graminis fsp. hordei. The plants are placed in a greenhouse at a temperature of about 18° C. and a relative air humidity of about 80% to promote the development of mildew pustules. Evaluation follows 7 days after the inoculation. 0% means an efficacy which corresponds to that of the control, whereas an efficacy of 100% means that no infection is observed.
as §5

Alternaria solani = test: Alternaria test (tomato)/protective; format: in vivo; conditions: 168 h, tomato plants, protective spray, evaluation 7 days after inoculation, read-out: Efficacy (%)
Protocol: Alternaria Test (Tomato)/Protective
as §1, §2
To produce a suitable preparation of active compound, 1 part by weight of active compound is mixed with the stated amounts of solvent and emulsifier, and the concentrate is diluted with water to the desired concentration. To test for protective activity, young tomato plants are sprayed with the preparation of active compound at the stated application rate. 1 day after the treatment, the plants are inoculated with a spore suspension of Alternaria solani and then remain at 100% rd. humidity and 22° C. for 24 h. The plants then remain at 96% rd. atmospheric humidity and a temperature of 20° C. Evaluation is carried out 7 days after the inoculation. 0% means an efficacy which corresponds to that of the control, whereas an efficacy of 100% means that no infection is observed.
as §5

Venturia inaequalis = test: Venturia test (apple)/protective; format: in vivo; conditions: 240 h, protective spray, evaluation 10 days after inoculation, read-out: Efficacy (%)
Protocol: Venturia Test (Apple)/Protective
(§6) Solvents: 24.5 parts by weight of acetone
(§7) • 24.5 parts by weight of dimethylacetamide Emulsifier: 1 part by weight of alkylaryl polyglycol ether
(§8) To produce a suitable preparation of active compound, 1 part by weight of active compound is mixed with the stated amounts of solvent and emulsifier, and the concentrate is diluted with water to the desired concentration. To test for protective activity, young plants are sprayed with the preparation of active compound at the stated application rate. After the spray coating has dried on, the plants are inoculated with an aqueous conidia suspension of the apple scab pathogen Venturia inaequalis and then remain in an incubation cabin at approx. 20° C. and 100% relative air humidity for 1 day. The plants are then placed in the greenhouse at about 21° C. and a relative atmospheric humidity of about 90%. Evaluation follows 10 days after the inoculation. 0% means an efficacy which corresponds to that of the control, whereas an efficacy of 100% means that no infection is observed.
(§9) In this test, the following compounds according to the invention show, at an active compound concentration of 100 ppm, an efficacy of 70% or more: […]

Uromyces appendiculatus = test: Uromyces test (bean)/protective; format: in vivo; conditions: 240 h, protective spray, evaluation 10 days after inoculation, read-out: Efficacy (%)
Protocol: Uromyces Test (Bean)/Protective
as §6, §7
as §8, with “spore” for “conidia”, “bean rust” for “apple scab”, “Uromyces appendiculatus” for “Venturia inaequalis”, “about” for “approx.”, “atmospheric” for “air”
as §9

| SMILES | pest or weed control at 500 ppm (Sphaerotheca fuliginea) [%] | pest or weed control at 500 ppm (Puccinia triticina) [%] | pest or weed control at 500 ppm (Septoria tritici) [%] | chromatographic logP [1] | pest or weed control at 500 ppm (Leptosphaeria nodorum) [%] | pest or weed control at 500 ppm [2] [%] | pest or weed control at 500 ppm (Alternaria solani) [%] | pest or weed control at 100 ppm (Venturia inaequalis) [%] | pest or weed control at 100 ppm (Uromyces appendiculatus) [%] |
| --- | --- | --- | --- | --- | --- | --- | --- | --- | --- |
| CC1(C(O)(COc2ccc(SC(F)(F)F)cc2)c2cncnc2)CC1 (stereo not drawn) [Compound 19] | 95 | 100 | 86 | 3.3 | 95 | 100 | 90 | – | – |
| Cc1cc(OC(F)(F)F)ccc1OCC(O)(c1cncnc1)C(C)(C)C (stereo not drawn) [Compound 30] | 100 | 100 | 71 | 3.59 | 89 | 100 | 90 | 98 | 100 |
| CC(C)(C)C(O)(COc1ccc(SC(F)(F)F)c(Cl)c1)c1cncnc1 (stereo not drawn) [Compound 31] | 100 | – | – | 3.76 | 95 | – | 95 | 99 | 100 |
| CC(C)(C)C(O)(COc1ccc(S(=O)(=O)C(F)(F)F)cc1)c1cncnc1 (stereo not drawn) [Compound 33] | 95 | 100 | – | 2.82 | 94 | 100 | 89 | 99 | 100 |
